The values below come from US8877731B2, “Azido nucleosides and nucleotide analogs” (Alios Biopharma, Inc., priority 2010, dated 2014).

In general, EC50 refers to the concentration at which the effect is half-maximal.

In experiment [1] the test system is RSV A2. Briefly: RSV RT-PCR based assay. In kind it is cell-based. As to the method:
RT-PCR based assays were performed in HEp-2 cells (ATCC: CCL-23) at a concentration of 20000 cell/well were plated in 96 well plates and incubated overnight. Each of the test compounds were ⅓ serially diluted and dosed to HEp-2 cells in duplicates. The highest final concentration for each compound was 100 uM. After 24 hour compound pre-incubation, RSV A2 (ATCC: VR-1540) at MOI of 0.1 was added. Two wells per compound were set aside as uninfected, untreated cell controls (CC), and four wells per test compound received virus only as a control for virus replication (VC). The assay was stopped 4 days after virus infection and conditioned media was removed for viral RNA isolation. The quantities of the RSV virus were measured by real-time PCR using a set of RSV specific primers and probe. The data was analyzed with Prism software with EC50 defined as drug concentration that reduced the viral load 50% from the viral control (VC).
(§1) Compounds of Formula (I) and Formula (II) are active in the assay as noted in Tables 2 and 3, where ‘A’ indicates an EC50<1 μM, ‘B’ indicates an EC50 of >1 μM and <10 μM, ‘C’ indicates an EC50>10 μM and <100 μM, and ‘D’ indicates an EC50>100 μM.

Experiment [2] relates to RSV Long strain. Briefly: RSV CPE reduction assay. In kind it is cell-based. As to the method: CPE reduction assays were performed as described by Sidwell and Huffman et al., Appl Microbiol. (1971) 22(5):797-801 with slight modifications. HEp-2 cells (ATCC) at a concentration of 6000 cell/well were infected with RSV Long strain (ATCC) at a multiplicity of infection (m.o.i.) of 0.01, and each of the test compounds were provided to duplicate wells at final concentrations starting from 100 μM using ⅓ stepwise dilutions. For each compound, two wells were set aside as uninfected, untreated cell controls (CC), and two wells per test compound received virus only as a control for virus replication (VC). […] At the end of the incubation, 20 μl of cell counting kit-8 reagent (CCK-8, Dojindo Molecular Technologies, Inc.) were added to each well. After 4 hour incubation, the absorbance was measured in each well according to manufacturer's instruction, and the 50% effective concentration (EC50) was calculated by using regression analysis, based on the mean O.D. at each concentration of compound.
as §1

Setting [3] is: human respiratory syncytial virus, RT-PCR assay, HEp-2 cells, 24 hour compound pre-incubation, RSV A2 at MOI 0.1, 4 days after infection, viral load, read-out: EC50.
Where [4] appears, read: human respiratory syncytial virus, 144 h, CPE assay, HEp-2 cells infected with RSV Long strain, m.o.i. 0.01, 6 days, CCK-8 readout, read-out: EC50.
Where [5] appears, read: human respiratory syncytial virus, HEp-2.
Where [6] appears, read: human respiratory syncytial virus, HEp-2, 144 h.

Each structure is given as a SMILES string. Read-outs that look alike come from different tables or passages of the source.

As to `CC(C)OC(=O)[C@H](C)NP(=O)(OC[C@@]1(N=[N+]=[N-])O[C@@H](n2ccc(=O)[nH]c2=O)[C@H](O)[C@@H]1O)Oc1ccccc1` (stereo partly drawn) [Compound 21, 4′-azidouridine 5′-(O-phenyl-N—(S)-1-(isopropoxycarbonyl)eth-1-yl)phosphoramidate], the EC50 in experiment [1] (setting [3]) and in experiment [2] (setting [4]) was less than 1 µM each time.
In the case of `CC(C)OC(=O)[C@H](C)NP(=O)(OC[C@@]1(N=[N+]=[N-])O[C@@H](n2ccc(N)nc2=O)[C@H](O)[C@@H]1O)Oc1ccccc1` (stereo partly drawn) [Compound 22, 4′-azidocytidine 5′-(O-phenyl-N—(S)-1-(isopropoxycarbonyl)ethyl)phosphoramidate], the EC50 in experiment [1] (setting [3]) and in experiment [2] (setting [4]) was less than 1 µM throughout.
As to `CC(C)OC(=O)[C@H](C)NP(=O)(OC[C@@]1(N=[N+]=[N-])O[C@@H](n2ccc(N)nc2=O)[C@H](F)[C@@H]1O)Oc1ccccc1` (stereo partly drawn) [Compound 23, 4′-azido-2′-deoxy-2′-fluorocytidine 5′-(O-phenyl-N—(S)-1-(isopropoxycarbonyl)ethyl)phosphoramidate], the EC50 in experiment [1] (setting [3]) and in experiment [2] (setting [4]) was 1 to 10 µM throughout.
`CC(C)OC(=O)[C@H](C)NP(=O)(OC[C@@]1(N=[N+]=[N-])O[C@@H](n2ccc(=O)[nH]c2=O)[C@H](F)[C@@H]1O)Oc1ccccc1` (stereo partly drawn) [Compound 24, 4′-azido-2′-deoxy-2′-fluorouridine 5′-(O-phenyl-N—(S)-1-(isopropoxycarbonyl)ethyl)phosphoramidate]: the EC50 in experiment [1] (setting [3]) and in experiment [2] (setting [4]) was more than 100 µM in each case.
As to `[N-]=[N+]=N[C@]1(CO)O[C@@H](n2cnc3nc(N)[nH]c(=O)c32)[C@H](O)[C@@H]1O` [Compound 25, 2-amino-7-(4-azido-β-D-ribofuranos-1-yl)-1H-purin-6(7H)-one], the EC50 in experiment [1] (setting [3]) and in experiment [2] (setting [4]) was more than 100 µM each time.
On to `CC(C)OC(=O)[C@H](C)NP(=O)(OC[C@@]1(N=[N+]=[N-])O[C@@H](n2ccc(=O)[nH]c2=O)[C@@H](F)[C@@H]1O)Oc1ccccc1` (stereo partly drawn) [Compound 26, 4′-azido-2′-deoxy-2′-fluorouarabinoridine 5′-(O-phenyl-N—(S)-1-(isopropoxycarbonyl)ethyl)phosphoramidate], for which the EC50 in experiment [1] (setting [3]) and in experiment [2] (setting [4]) was more than 100 µM each time.
Regarding `C[C@H](NP(=O)(OC[C@@]1(N=[N+]=[N-])O[C@@H](n2cnc3c(=O)[nH]c(N)nc32)[C@H](O)[C@@H]1O)Oc1ccccc1)C(=O)OC1CCCCC1` (stereo partly drawn) [Compound 29, 4′-azidoguanosine 5′-[O-phenyl-N—((S)-cyclohexoxycarbonyleth-1-yl))phosphoramidate], the EC50 in experiment [1] (setting [3]) and in experiment [2] (setting [4]) was less than 1 µM each time.
Turning to `C[C@H](NP(=O)(OCC1(N=[N+]=[N-])OC(n2cnc3c(=O)[nH]c(N)nc32)C(F)C1O)Oc1ccccc1)C(=O)OC1CCCCC1` (stereo partly drawn) [Compound 31, 4′-azido-2′-deoxy-2′-fluoroguanosine 5′-(O-phenyl-N—((S)-cyclohexoxycarbonyleth-1-yl))phosphoramidate], the EC50 in experiment [1] (RT-PCR assay, HEp-2 cells, 24 hour compound pre-incubation, RSV A2 at MOI 0.1, 4 days after infection, viral load, read-out: EC50) is less than 1 µM; in experiment [2] (CPE assay, HEp-2 cells infected with RSV Long strain, m.o.i. 0.01, 6 days, CCK-8 readout, read-out: EC50), less than 1 µM.
In the case of `CC(C)OC(=O)[C@H](C)NP(=O)(N[C@@H](C)C(=O)OC(C)C)OC[C@@]1(N=[N+]=[N-])O[C@@H](n2ccc(N)nc2=O)C(F)(F)[C@@H]1O` [Compound 33, 4′-azido-2′-deoxy-2′-difluorocytidine 5′-(N,N′-bis((S)-1-(isopropoxycarbonyl)ethyl))phosphordiamidate], the EC50 in experiment [1] (setting [3]) and in experiment [2] (setting [4]) was less than 1 µM each time.
For the molecule `CC(C)OC(=O)[C@H](C)NP(=O)(OC[C@@]1(N=[N+]=[N-])O[C@@H](n2ccc(N)nc2=O)[C@@H](O)[C@@H]1O)Oc1ccccc1` (stereo partly drawn) [Compound 34, 4′-azidoarabinocytidine 5′-(O-phenyl-N—(S)-1-(isopropoxycarbonyl)ethyl)phosphoramidate], the EC50 in experiment [1] (setting [3]) and in experiment [2] (setting [4]) was more than 100 µM throughout.
Turning to `CC(C)OC(=O)[C@H](C)NP(=O)(OC[C@@]1(N=[N+]=[N-])O[C@@H](n2ccc(=O)[nH]c2=O)[C@@H](O)[C@@H]1O)Oc1ccccc1` (stereo partly drawn) [Compound 35, 4′-azidoarabinouridine 5′-(O-phenyl-N—(S)-1-(isopropoxycarbonyl)ethyl)phosphoramidate], the EC50 in experiment [1] (setting [3]) and in experiment [2] (setting [4]) was less than 1 µM in each case.
For `CC(C)OC(=O)[C@H](C)NP(=O)(OC[C@@]1(N=[N+]=[N-])O[C@@H](n2ccc(=O)[nH]c2=O)[C@@H](C)[C@@H]1O)Oc1ccccc1` (stereo partly drawn) [Compound 36, 4′-azido-2′-deoxy-2′-methylarabinouridine 5′-(O-phenyl-N—(S)-1-(isopropoxycarbonyl)ethyl)phosphoramidate], the concentration for a half-maximal effect (EC50) in experiment [1] (setting [3]) and in experiment [2] (setting [4]) was more than 100 µM in each case.
For `CC(C)OC(=O)[C@H](C)NP(=O)(OC[C@@]1(N=[N+]=[N-])O[C@@H](n2cnc3c(N)ncnc32)[C@H](F)[C@@H]1O)Oc1ccccc1` (stereo partly drawn) [Compound 37, 4′-azido-2′-deoxy-2′-fluoroadenosine 5′-(O-phenyl-N—(S)-1-(isopropoxycarbonyl)ethyl)phosphoramidate], the EC50 in experiment [1] (setting [3]) and in experiment [2] (setting [4]) was 1 to 10 µM each time.
Consider `C[C@]1(F)[C@H](n2ccc(N)nc2=O)O[C@@](CO)(N=[N+]=[N-])[C@H]1O` [Compound 38, 4′-azido-2′-deoxy-2′-α-fluoro-2′-β-methylcytidine], for which the EC50 in experiment [1] (setting [3]) and in experiment [2] (setting [4]) was more than 100 µM in each case.
For `CC(C)OC(=O)[C@H](C)NP(=O)(N[C@@H](C)C(=O)OC(C)C)OC[C@@]1(N=[N+]=[N-])O[C@@H](n2ccc(=O)[nH]c2=O)C(F)(F)[C@@H]1O` [Compound 39, 4′-azido-2′-deoxy-2′-difluorouridine 5′-(N,N-bis((S)-isopropoxycarbonyleth-1-yl))phosphordiamidate], the EC50 in experiment [1] (setting [3]) and in experiment [2] (setting [4]) was more than 100 µM throughout.
Turning to `CC(C)OC(=O)[C@H](C)NP(=O)(N[C@@H](C)C(=O)OC(C)C)OC[C@@]1(N=[N+]=[N-])O[C@@H](n2ccc(=O)[nH]c2=O)[C@H](F)[C@@H]1O` [Compound 40], the concentration for a half-maximal effect (EC50) in experiment [1] (setting [3]) and in experiment [2] (setting [4]) was more than 100 µM in each case.
Consider `COP1(=S)OC[C@@]2(N=[N+]=[N-])O[C@@H](n3ccc(=O)[nH]c3=O)[C@H](F)[C@@H]2O1` (stereo partly shown) [Compound 41, 4′-azido-2′-deoxy-2′-fluorouridine 3′,5′-cyclic thiophosphoric acid methyl ester], for which the EC50 in experiment [1] (setting [5]) and in experiment [2] (setting [6]) was more than 100 µM throughout.
Consider `[N-]=[N+]=N[C@]1(CO)O[C@@H](n2cnc(C(N)=O)n2)[C@H](O)[C@@H]1O` [Compound 43, 4′-azidoribavirin], for which the EC50 in experiment [1] (setting [3]) and in experiment [2] (setting [4]) was 10 to 100 µM throughout.
Take `CC(C)OC(=O)[C@H](C)NP(=O)(N[C@@H](C)C(=O)OC(C)C)OC[C@@]1(N=[N+]=[N-])O[C@@H](n2ccc(=O)[nH]c2=O)[C@H](O)[C@@H]1O` [Compound 44, 4′-azidouridine 5′-(N,N′-bis((S)-1-(isopropoxycarbonyl)ethyl))phosphorodiamidate]: the EC50 in experiment [1] (setting [3]) and in experiment [2] (setting [4]) was more than 100 µM throughout.
Turning to `CC(C)OP1(=S)OC[C@@]2(N=[N+]=[N-])O[C@@H](n3ccc(=O)[nH]c3=O)[C@H](F)[C@@H]2O1` (stereo partly shown) [Compound 45, 4′-azido-2′-deoxy-2′-fluorouridine 3′,5′-cyclic thiophosphoric acid isopropyl ester], the EC50 in experiment [1] (setting [5]) and in experiment [2] (setting [6]) was more than 100 µM each time.
